These results are taken from patent publication US6703398B2, “Orally administered analgesic compositions containing nalbuphine” (priority 2001, dated 2004).

The conditions of data set [1]: literature; cited from earlier work.
Data set [2] is described as follows: Pharmacokinetics of nalbuphine in beagles after oral administration of SDN compositions. As to conditions: 30 mg/kg of SDN; for AUC/Dose: nalbuphine in plasma, 30 mg/kg. Here is the method:
To assess the effects of various pharmaceutical compositions of the present invention on beagles. The compositions were orally administered into beagles, and the concentration of nalbuphine in vivo was monitored in the animals as follows:
2, In each study group, the pharmaceutical composition that contained 30 mg/kg of SDN were orally given to beagles.
4. The blood samples were analyzed by high performance liquid chromatography (HPLC) to determine the pharmacokinetics (including the half-life and bioavailability of nalbuphine) in vivo.

Data set [3] in a line: Efficacy and bioavailability study of nalbuphine ester prodrugs as orally administered compositions. It counts as in vivo, animals and humans. As to conditions: oral composition with oily substance, effect of adding the solubility-assisting agent; comparison among active ingredients. The source says: Each and every one of these nalbuphine and/or nalbuphine ester prodrugs as listed above has been tested for suitability as an orally administered pharmaceutical composition for use in animals and humans. The efficacy and bioavailability of these nalbuphine ester prodrugs have been studied.

With “nalbuphine hydrochloride [nalbuphine-HCl]”, the “bioavailability through oral administration” value in data set [1] is given as “less than 5%”.
Consider `O=C(CCCCCCCCC(=O)Oc1ccc2c3c1O[C@H]1[C@@H](O)CC[C@@]4(O)[C@@H](C2)N(CC2CCC2)CC[C@]314)Oc1ccc2c3c1O[C@H]1[C@@H](O)CC[C@@]4(O)[C@@H](C2)N(CC2CCC2)CC[C@]314` [SDN Powder, sebacoyl dinalbuphine ester], for which the “concentration of nalbuphine in plasma 1-3 hours after the oral uptake of SDN” value in data set [2] (FIG. 1, comparison among groups) is recorded as “much less than the other two groups”. The “concentration of nalbuphine in plasma after the peak” value in data set [2] (FIG. 1, later time points) is recorded as “decreased substantially”. The compound also displayed a Bioavailability in data set [2] (bioavailability of nalbuphine, means ± S.E.) of 14.6%. Besides, the “Nalbuphine Half-Life” value in data set [2] (nalbuphine in plasma by HPLC, means ± S.E.) amounted to 8.1 ± 1.6 h. Also, the AUC/Dose is 39 ± 11 ng·kg·h/mL/mg in data set [2] (means ± S.E.) and 39 ng·kg·h/mL/mg in data set [2] (means ± S.E., listed as SDN Powder Group). Also, the “bioavailability and half-life of nalbuphine in blood” value in data set [3] was “the best in terms of longer half-life and greater bioavailability rate”.
